Patent USRE39062E1, “INGAP protein involved in pancreatic islet neogenesis” (McGill Unviersity, priority 1995, dated 2006)

Assays:
Type in all cases: cell-based
[1] = system: rat pancreatic tumor duct cells (ARIP); test: 3H-thymidine incorporation into rat pancreatic tumor duct cells (ARIP); conditions: ARIP cells in Ham's F-12K media, 24 hrs, TCA precipitation
Description: (§1) The same synthetic peptide was tested for its ability to stimulate ^3H-thymidine incorporation into rat pancreatic tumor duct cells (ARIP) and hamster insulinoma tumor cells (HIT). 10 μCi of ^3H-thymidine at 80.4 Ci/mmole concentration was added to approximate 10^6 cells cultured in Ham's F-12K media. After 24 hrs, the cells were harvested and solubilized. Differential precipitation of the nucleic acids with trichloroacetic acid (TCA) was performed according to the procedure modified by Rosenberg et al. and the ^3H-thymidine proportion incorporated was calculated. […] The synthetic peptide had no effect on the control cell line HIT.

[2] = system: hamster insulinoma tumor cells (HIT); test: 3H-thymidine incorporation into hamster insulinoma tumor cells (HIT), control cell line; conditions: HIT control cell line in Ham's F-12K media, 24 hrs, TCA precipitation
Description: as §1

pancreatic ductal cells = test: Stimulation of pancreatic ductal cells to grow and proliferate
rat tumor duct cell line = test: Growth and proliferation of a rat tumor duct cell line
hamster duct cell line = test: Growth and proliferation of a hamster duct cell line
[3] = system: hamster insulinoma cell line; test: Growth and proliferation of a hamster insulinoma cell line
rat insulinoma cell line = test: Growth and proliferation of a rat insulinoma cell line

Substance | increase in 3H-thymidine incorporation comparing to the absence of the synthetic peptide [1] | effect on 3H-thymidine incorporation [2] | stimulation of growth and proliferation (pancreatic ductal cells) | stimulation of growth and proliferation (rat tumor duct cell line) | stimulation of growth and proliferation (hamster duct cell line) | stimulation of growth and proliferation [3] | stimulation of growth and proliferation (rat insulinoma cell line)
synthetic peptide: synthetic peptide corresponding to amino acids 104-118 in SEQ ID NO:2 of the deduced hamster INGAP protein (GLHDPSHGTLPNGSG) | 2.4 fold | no effect | – | – | – | – | –
fragment of 20 amino acids of the sequence of SEQ ID NO: 2, from amino acid #103-#122: fragment of 20 amino acids of INGAP, SEQ ID NO: 2, amino acids #103-#122 (IGLHDPSHGTLPNGSGWKWS) | – | – | sufficient to stimulate pancreatic ductal cells to grow and proliferate | effect has been seen | effect has been seen | effect has been seen | effect has been seen
